Reference: PubChem BioAssay (NCI)
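Protocol summary: plate cells (96-well), add compound at 5 concentrations, incubate 48 h, interpolate endpoints linearly. Here, GI50 denotes the concentration required for 50% inhibition of growth. TGI marks complete inhibition of growth.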

How the values were obtained:
Experiment in all cases: NCI anticancer screen, dose series, 48 h
SW-620 colon = tested on: SW-620 colon
OVCAR-8 ovarian = tested on: OVCAR-8 ovarian
EKVX NSCLC = tested on: EKVX NSCLC
SN12C renal = tested on: SN12C renal
UACC-62 melanoma = tested on: UACC-62 melanoma
ACHN renal = tested on: ACHN renal
K-562 leukemia = tested on: K-562 leukemia
HT29 colon = tested on: HT29 colon
LOX IMVI melanoma = tested on: LOX IMVI melanoma
COLO 205 colon = tested on: COLO 205 colon

SMILES: Cn1cc(-c2csc(-c3cn(C)c4ccc(F)cc34)n2)c2cnccc21
- GI50 (SW-620 colon): 1.88 µM
- TGI (SW-620 colon): 3.59 µM
- GI50 (OVCAR-8 ovarian): 2.02 µM
- TGI (OVCAR-8 ovarian): 3.93 µM
- GI50 (EKVX NSCLC): 1.87 µM
- TGI (EKVX NSCLC): 3.7 µM
- GI50 (SN12C renal): 1.7 µM
- TGI (SN12C renal): 3.14 µM
- GI50 (UACC-62 melanoma): 1.74 µM
- TGI (UACC-62 melanoma): 3.2 µM
- GI50 (ACHN renal): 1.84 µM
- TGI (ACHN renal): 3.26 µM
- GI50 (K-562 leukemia): 1.7 µM
- TGI (K-562 leukemia): 3.78 µM
- GI50 (HT29 colon): 1.47 µM
- TGI (HT29 colon): 3 µM

SMILES: NC(=O)CNc1ccc([As]=[As]c2ccc(NCC(N)=O)cc2)cc1 (centres undefined)
- GI50 (SW-620 colon): 2.54 µM
- TGI (SW-620 colon): 15.4 µM
- GI50 (OVCAR-8 ovarian): 4.65 µM
- TGI (OVCAR-8 ovarian): > 100 µM
- GI50 (LOX IMVI melanoma): 6.03 µM
- TGI (LOX IMVI melanoma): 23.8 µM
- GI50 (EKVX NSCLC): 4.83 µM
- TGI (EKVX NSCLC): 90.9 µM
- GI50 (UACC-62 melanoma): 4.2 µM
- TGI (UACC-62 melanoma): 18.2 µM
- GI50 (ACHN renal): 11.6 µM
- TGI (ACHN renal): 30.3 µM
- GI50 (COLO 205 colon): 7.83 µM
- TGI (COLO 205 colon): 22 µM
- GI50 (K-562 leukemia): 3.47 µM
- TGI (K-562 leukemia): > 100 µM

SMILES: Cc1cc(NCCCCNc2ccnc3cc(Cl)ccc23)nc(Nc2ccc(C(=O)N3CCCCC3)cc2)n1
- GI50 (SW-620 colon): 1.46 µM
- TGI (SW-620 colon): 3.04 µM
- GI50 (OVCAR-8 ovarian): 2.34 µM
- TGI (OVCAR-8 ovarian): 5.49 µM
- GI50 (LOX IMVI melanoma): 1.44 µM
- TGI (LOX IMVI melanoma): 3.01 µM
- GI50 (EKVX NSCLC): 2.97 µM
- TGI (EKVX NSCLC): 10.8 µM
- GI50 (ACHN renal): 3.01 µM
- TGI (ACHN renal): 9.28 µM
- GI50 (COLO 205 colon): 1.76 µM
- TGI (COLO 205 colon): 3.51 µM
- GI50 (HT29 colon): 1.78 µM
- TGI (HT29 colon): 4.62 µM

SMILES: Cc1c2c(C(N)=O)nccc2c(C)c2c1c1ccccc1n2Cc1ccccc1
- TGI (SW-620 colon): 50 µM
- TGI (OVCAR-8 ovarian): 31.3 µM
- TGI (LOX IMVI melanoma): 19.7 µM
- TGI (EKVX NSCLC): > 100 µM
- TGI (SN12C renal): 44.8 µM
- TGI (UACC-62 melanoma): > 100 µM
- TGI (ACHN renal): 37.5 µM
- TGI (K-562 leukemia): 45.7 µM
- TGI (HT29 colon): 37.1 µM

SMILES: CCOC(=O)C1=C(Nc2ccc(Br)cc2)OCC1=O
- TGI (SW-620 colon): > 100 µM
- TGI (OVCAR-8 ovarian): > 100 µM
- TGI (EKVX NSCLC): > 100 µM
- TGI (SN12C renal): > 100 µM
- TGI (UACC-62 melanoma): > 100 µM
- TGI (ACHN renal): > 100 µM
- TGI (COLO 205 colon): > 100 µM
- TGI (HT29 colon): > 100 µM

SMILES: COc1ccc(-c2ccc(NNC(=O)c3ccc(F)cc3)nn2)cc1OC
- GI50 (SW-620 colon): > 100 µM
- TGI (SW-620 colon): > 100 µM
- GI50 (LOX IMVI melanoma): 67.6 µM
- TGI (LOX IMVI melanoma): > 100 µM
- GI50 (EKVX NSCLC): > 100 µM
- TGI (EKVX NSCLC): > 100 µM
- GI50 (SN12C renal): > 100 µM
- TGI (SN12C renal): > 100 µM
- GI50 (UACC-62 melanoma): > 100 µM
- TGI (UACC-62 melanoma): > 100 µM
- GI50 (ACHN renal): > 100 µM
- TGI (ACHN renal): > 100 µM
- GI50 (COLO 205 colon): > 100 µM
- TGI (COLO 205 colon): > 100 µM
- GI50 (K-562 leukemia): 58.7 µM
- TGI (K-562 leukemia): > 100 µM
- GI50 (HT29 colon): > 100 µM
- TGI (HT29 colon): > 100 µM

SMILES: COc1cc2c(cc1OC)C1Cc3cc(OC)c(OC)cc3N1CC2 (centres undefined)
- TGI (SW-620 colon): > 100 µM
- TGI (OVCAR-8 ovarian): > 100 µM
- TGI (EKVX NSCLC): 89.5 µM
- TGI (SN12C renal): > 100 µM
- TGI (UACC-62 melanoma): > 100 µM
- TGI (ACHN renal): 43 µM
- TGI (COLO 205 colon): 52.1 µM
- TGI (K-562 leukemia): > 100 µM
- TGI (HT29 colon): > 100 µM

SMILES: C=CCC1(C)CCCCC1(O)CS(=O)c1ccccc1 (centres undefined)
- TGI (SW-620 colon): > 100 µM
- TGI (OVCAR-8 ovarian): > 100 µM
- TGI (LOX IMVI melanoma): > 100 µM
- TGI (EKVX NSCLC): > 100 µM
- TGI (SN12C renal): > 100 µM
- TGI (UACC-62 melanoma): > 100 µM
- TGI (ACHN renal): > 100 µM
- TGI (COLO 205 colon): > 100 µM
- TGI (HT29 colon): > 100 µM

SMILES: Cc1ccc(C)c(N2C(=O)C(=O)C(c3nc4ccccc4o3)/C(=N/N)C2=O)c1 (centres undefined)
- TGI (SW-620 colon): > 100 µM
- TGI (OVCAR-8 ovarian): > 100 µM
- TGI (EKVX NSCLC): > 100 µM
- TGI (SN12C renal): > 100 µM
- TGI (UACC-62 melanoma): > 100 µM
- TGI (ACHN renal): > 100 µM
- TGI (COLO 205 colon): > 100 µM
- TGI (HT29 colon): > 100 µM

SMILES: O=C1C2[C@@H](C(=O)N1c1ccc(Br)cc1)C13C(=CC2([N+](=O)[O-])[C@@H]2C(=O)N(c4ccc(Br)cc4)C(=O)[C@@H]21)c1ccccc1N3c1ccccc1 (some centres undefined)
- TGI (SW-620 colon): > 100 µM
- TGI (OVCAR-8 ovarian): > 100 µM
- TGI (LOX IMVI melanoma): > 100 µM
- TGI (EKVX NSCLC): > 100 µM
- TGI (SN12C renal): > 100 µM
- TGI (ACHN renal): > 100 µM
- TGI (COLO 205 colon): > 100 µM
- TGI (K-562 leukemia): > 100 µM

SMILES: c1ccc2c(c1)c1ccccc1c1ccccc21
- GI50 (SW-620 colon): > 100 µM
- TGI (SW-620 colon): > 100 µM
- GI50 (OVCAR-8 ovarian): > 100 µM
- TGI (OVCAR-8 ovarian): > 100 µM
- GI50 (LOX IMVI melanoma): > 100 µM
- TGI (LOX IMVI melanoma): > 100 µM
- GI50 (SN12C renal): > 100 µM
- TGI (SN12C renal): > 100 µM
- GI50 (UACC-62 melanoma): > 100 µM
- TGI (UACC-62 melanoma): > 100 µM
- GI50 (ACHN renal): > 100 µM
- TGI (ACHN renal): > 100 µM
- GI50 (COLO 205 colon): > 100 µM
- TGI (COLO 205 colon): > 100 µM
- GI50 (K-562 leukemia): > 100 µM
- TGI (K-562 leukemia): > 100 µM
- GI50 (HT29 colon): > 100 µM
- TGI (HT29 colon): > 100 µM

SMILES: Nc1ccc(C2=N/C(=C\c3cccc(N)c3)C(=O)O2)cc1
- TGI (SW-620 colon): > 100 µM
- TGI (OVCAR-8 ovarian): > 100 µM
- TGI (EKVX NSCLC): > 100 µM
- TGI (SN12C renal): > 100 µM
- TGI (UACC-62 melanoma): > 100 µM
- TGI (ACHN renal): > 100 µM
- TGI (COLO 205 colon): > 100 µM
- TGI (K-562 leukemia): > 100 µM
- TGI (HT29 colon): > 100 µM

SMILES: N#CC(C#N)=C1CCCOc2c1ccc1ccccc21
- GI50 (SW-620 colon): > 100 µM
- TGI (SW-620 colon): > 100 µM
- GI50 (OVCAR-8 ovarian): > 100 µM
- TGI (OVCAR-8 ovarian): > 100 µM
- GI50 (EKVX NSCLC): 46.8 µM
- TGI (EKVX NSCLC): > 100 µM
- GI50 (SN12C renal): > 100 µM
- TGI (SN12C renal): > 100 µM
- GI50 (UACC-62 melanoma): > 100 µM
- TGI (UACC-62 melanoma): > 100 µM
- GI50 (ACHN renal): > 100 µM
- TGI (ACHN renal): > 100 µM
- GI50 (COLO 205 colon): > 100 µM
- TGI (COLO 205 colon): > 100 µM
- GI50 (K-562 leukemia): 20.4 µM
- TGI (K-562 leukemia): 43.5 µM
- GI50 (HT29 colon): > 100 µM
- TGI (HT29 colon): > 100 µM

SMILES: COc1ccc(-c2noc(N)c2-c2cc(OC)c3c(c2)OCO3)cc1
- GI50 (SW-620 colon): 0.677 µM
- TGI (SW-620 colon): > 100 µM
- GI50 (OVCAR-8 ovarian): 3.98 µM
- TGI (OVCAR-8 ovarian): > 100 µM
- GI50 (LOX IMVI melanoma): 4.02 µM
- TGI (LOX IMVI melanoma): > 100 µM
- GI50 (SN12C renal): 4.14 µM
- TGI (SN12C renal): > 100 µM
- GI50 (UACC-62 melanoma): 4.22 µM
- TGI (UACC-62 melanoma): > 100 µM
- GI50 (ACHN renal): 6.88 µM
- TGI (ACHN renal): > 100 µM
- GI50 (COLO 205 colon): 2.34 µM
- TGI (COLO 205 colon): 9.41 µM
- GI50 (K-562 leukemia): 0.405 µM
- TGI (K-562 leukemia): > 100 µM
- GI50 (HT29 colon): 1.39 µM
- TGI (HT29 colon): > 35.5 µM

SMILES: O=C(NNc1cnccn1)c1nc2cc(F)ccc2n2cccc12
- GI50 (SW-620 colon): 0.397 µM
- TGI (SW-620 colon): > 100 µM
- GI50 (OVCAR-8 ovarian): 0.429 µM
- TGI (OVCAR-8 ovarian): > 100 µM
- GI50 (EKVX NSCLC): 0.387 µM
- TGI (EKVX NSCLC): > 100 µM
- GI50 (SN12C renal): 0.925 µM
- TGI (SN12C renal): > 100 µM
- GI50 (UACC-62 melanoma): 0.7 µM
- TGI (UACC-62 melanoma): > 100 µM
- GI50 (ACHN renal): 0.362 µM
- TGI (ACHN renal): > 100 µM
- GI50 (COLO 205 colon): 0.331 µM
- TGI (COLO 205 colon): > 100 µM
- GI50 (K-562 leukemia): 0.387 µM
- TGI (K-562 leukemia): > 100 µM
- GI50 (HT29 colon): 0.649 µM
- TGI (HT29 colon): > 100 µM

SMILES: COC(=O)c1c[nH]cc1CCCCc1c[nH]cc1C(=O)OC
- TGI (SW-620 colon): > 100 µM
- TGI (OVCAR-8 ovarian): > 100 µM
- TGI (LOX IMVI melanoma): > 100 µM
- TGI (EKVX NSCLC): > 100 µM
- TGI (SN12C renal): > 100 µM
- TGI (ACHN renal): > 100 µM
- TGI (COLO 205 colon): > 100 µM
- TGI (K-562 leukemia): > 100 µM
- TGI (HT29 colon): > 100 µM

SMILES: CCc1nc(Cl)c(Cl)c(Cl)n1
- TGI (SW-620 colon): > 100 µM
- TGI (OVCAR-8 ovarian): > 100 µM
- TGI (LOX IMVI melanoma): > 100 µM
- TGI (EKVX NSCLC): > 100 µM
- TGI (SN12C renal): > 100 µM
- TGI (UACC-62 melanoma): > 100 µM
- TGI (ACHN renal): > 100 µM
- TGI (K-562 leukemia): > 100 µM
- TGI (HT29 colon): > 100 µM
